Structures can show the parent of a compound that is named as a salt.
What was measured:
Solubility determination = type: physicochemical; conditions: water, result in words
[1] = tested on: Rats model of deep vein thrombosis; assay: Rat model of deep vein thrombosis (thrombus weight); type: in vivo, SD rats
Source text: Experimental animals: SD rats (body weight 220 to 250 g, sex: male)
The thrombus was removed and weighed.

[2] = Blood drug level in the rat deep vein thrombosis model; conditions: intravenous infusion of 0.1 mg/kg/h compound V
Experimental: Preparation of solution: An appropriate amount of Form I was weighed, dissolved in a vehicle (0.5% (W/V) Natrosol™ 250 HX solution containing 0.1% (W/V) L(+)-tartaric acid) to formulate into the required concentration and then stirred uniformly, so that the drug was administered according to the predetermined dose.
Procedure: Rats were acclimatized for 3 days and randomly divided into three groups: model group, positive control group/subject group and bridging group, with 8 to 10 rats in each group. […] Rats in each group were anesthetized with urethane (20%, 5 mL/kg) via intraperitoneal injection. The abdominal cavity was exposed, the vena cava was bluntly separated, and two surgical sutures of 8 to 10 cm in length were placed under the blood vessels, both 1 cm apart. When the modeling time of each group was reached, rabbit thromboplastin (0.02 mg/kg) was injected into the left femoral vein, and the two sutures were knotted 10 s later, and the knotted portion of the suture was cut with ophthalmic scissors after 1 h. The thrombus was removed and weighed.

[3] = Stability at room temperature (10 days); type: physicochemical
[4] = Moisture adsorption / hygroscopicity (DVS); type: physicochemical; conditions: for Hygroscopicity: result in words
[5] = 0.1 mg/kg/h, intravenous infusion

Row | Compound | Stability at room temperature (10 days) [3] | Moisture adsorption content (wt%) [4] [wt%] | Hygroscopicity [4] | further results
1 | CCCCCCOC(=O)NC(=N)c1ccc(CNC(=O)[C@@H]2CCCN2C(=O)[C@@H](CC(C)C)NCC(=O)OCC)cc1 |  |  |  | aqueous solubility (Solubility determination): insoluble in water
2 | CC(C)C[C@@H](NCC(=O)O)C(=O)N1CCC[C@H]1C(=O)NCc1ccc(C(=N)N)cc1 [Compound V] |  |  |  | Thrombosis inhibition rate (%) [1, 5]: 48.2%; Thrombus weight [1, 5]: 36.8 ± 6.6 mg; antithrombotic effect compared with oral administration of 5 mg/kg Form I ([1]; intravenous infusion of 0.1 mg/kg/h in rats): comparable; Blood drug level [2]: 174.2 ± 51.8 ng/mL
3 | CCCCCCOC(=O)NC(=N)c1ccc(CNC(=O)[C@@H]2CCCN2C(=O)[C@@H](CC(C)C)NCC(=O)OCC)cc1 [Form B of the monohydrochloride] | White powder, crystalline form remains unchanged (10 days) | 3.0 | Hygroscopic | 
4 | CCCCCCOC(=O)NC(=N)c1ccc(CNC(=O)[C@@H]2CCCN2C(=O)[C@@H](CC(C)C)NCC(=O)OCC)cc1 [Form A of the monohydrochloride] | White powder, crystalline form remains unchanged (10 days) | 0.5 | Slightly hygroscopic | 

From patent EP4667482A1, “SALT OF DIPEPTIDE COMPOUND, PREPARATION METHOD THEREFOR, AND USE THEREOF” (Zhejiang Huahai Pharmaceutical Co., Ltd., priority 2023, dated 2024)
